Read-outs that look alike come from different tables or passages of the source.
Test system: human articular chondrocytes
Experiment: Radioimmunoassay of cartilaginous proteoglycans (PG) produced in tridimensional culture of human chondrocytes
Type: cell-based
Conditions: for PG in the clusters over 12 days: 0-12 days
Source text: The model used for testing the proanthocyanidols, namely the tridimensional culture of human chondrocytes allows chondrorepair to be quantified by the production of matrix substances: type II collagen, proteoglycans, and chondroresorption by the reduction in the levels of prostaglandin E2 and of OH° and O°2 type free radicals produced.
1. Tridimensional culture of human chondrocytes
The technique used has been described in detail (Bassleer et al., 1986).
Briefly, human articular chondrocytes are cultivated in DMEM (Dulbecco's Modification of Eagle's Medium--ICN--Gand, Belgium) with either Ultroser G 1% (GIBCO, Gand, Belgium) or 10% of foetal calf serum (ICN--Gand--Belgium), and 50 μg of ascorbic acid/ml added to it. The cartilage originates from the apparently normal zone of heads of human femur suffering from arthrosis, immediately after an operation carried out to insert a total hip prosthesis; it can also originate from the head of a healthy femur, but which has undergone a traumatism and has had to be replaced. This cartilage is then digested by clostridial collagenase 1 mg/ml (Boehringer-Mannheim, Germany) in a buffer (NaCl 120 mM, CaCl2 1 mM, KCl 5 mM, KH2 PO4 1 mM, NaHCO3 25 mM, glucose 2 mM and Hepes 30 mM, pH 7.4) for 24 hours. After 6 successive washings and centrifugations, the chondrocytes, isolated from their matrix, are cultured in flasks (10^6 cells/2 ml of culture medium) placed on a gyrator (10 rpm). The cultures are kept at 37° C. in an atmosphere of air 95%-CO2 5% (Bassleer et al., 1986). Cultivated under these conditions, after 4 to 5 days the chondrocytes form a tridimensional cluster in each flask. These clusters, which at first have a flocculent appearance, then tend to condense during the culture. After two weeks, their diameter is, in general, from 1 to 2 mm.
The fresh weight of the clusters increases with the duration of the culture, above all during the few first days.
2. Radioimmunoassay of cartilaginous proteoglycans (PG)
The PGs are measured with a radioimmunoassay (RIA) which is specific and sensitive to human cartilaginous PGs (Gysen et al. 1984). The PGs were extracted from human cartilage, according to the methods described by Roughley et al., (1981) and by Bayliss and Venn (1980). The antiserum against the cartilaginous PGs was obtained from the rabbit according to the technique of Vaitukaitis et al. (1971). The radioimmunoassay is carried out in a 0.4 ml volume consisting of 0.1 ml of tracer solution (15000 to 20000 cpm ^125 I-PG, labelled by the chloramine T method (Greenwood, 1973). 0.1 ml of anti-PG antiserum diluted to 1/5000 in phosphate-buffered saline (PBS-50 mM PO4, 150 mM NaCl ), containing BSA (5 g/l bovine serum albumin and 6.7 mM sodium azide) (incubation buffer) and 0.2 ml of several dilutions of the culture medium or of the cluster extract or also of the antigen (0.5 -500 ng/tube).
After four days at 4° C., the free PGs* (radioactive PGs) are separated from the PG*-antibody complexes by double precipitation (Franchimont et al., 1983).
The sensitivity of the assay is 0.6 ng/tube. The accuracy of measurement is of the order of 4%. The coefficients of the intra- and inter assay variation are less than 10% and 20% respectively.
The antibodies are directed against the antigenic determinants of the central protein of PG. There is a complete crossed reaction with human PGs of cartilage from the ribs, vertebral disks and trachea, even with PGs extracted from veins or arteries. There is no cross reaction with glycosaminoglycans or with PGs extracted from foetal tissues or the small PGs from bone.
The PGs are measured directly in the culture medium. As for the chondrocyte clusters, they are washed 3 times in a phosphate-buffered saline (PBS-50 mM PO4, 150 mM NaCl pH 7.4) containing protease inhibitors (Oegema et al., 1975:100 mM 6-aminohexanoic acid, 10 mM EDTA, 50 mM benzamidine hydrochloride, 5.10^-8 M trypsin inhibitor, 6.7 mM sodium azide and 200 U/ml superoxide dismutase). […]

## Oc1cc(O)c2c(c1)O[C@H](c1cc(O)c(O)c(O)c1)[C@@H](O)[C@@H]2c1c(O)cc(O)c2c1O[C@H](c1cc(O)c(O)c(O)c1)[C@@H](O)C2 [Substance Ib, GC-(4 alpha→8) GC]
1% Ultroser G, 1 μg/ml
  PG in the clusters over 12 days: 742 ± 62 ng/μg DNA
  Concentrations of PG in the clusters, effect in words: no significant effect
1% Ultroser G, 10 μg/ml
  PG in the clusters over 12 days: 931 ± 24 ng/μg DNA
1% Ultroser G, 100 μg/ml
  PG in the clusters over 12 days: 1108 ± 45 ng/μg DNA
1% Ultroser G, culture time 0-4 days, 1 μg/ml
  PGs released in the culture medium: 13.0 ± 1.22 μg/μg DNA/96 h
1% Ultroser G, culture time 0-4 days, 10 μg/ml
  PGs released in the culture medium: 20.4 ± 3.0 μg/μg DNA/96 h
1% Ultroser G, culture time 0-4 days, 100 μg/ml
  PGs released in the culture medium: 28.2 ± 2.92 μg/μg DNA/96 h
1% Ultroser G, culture time 4-8 days, 1 μg/ml
  PGs released in the culture medium: 3.45 ± 0.56 μg/μg DNA/96 h
1% Ultroser G, culture time 4-8 days, 10 μg/ml
  PGs released in the culture medium: 4.78 ± 0.56 μg/μg DNA/96 h
1% Ultroser G, culture time 4-8 days, 100 μg/ml
  PGs released in the culture medium: 5.65 ± 0.24 μg/μg DNA/96 h
1% Ultroser G, culture time 8-12 days, 1 μg/ml
  PGs released in the culture medium: 0.72 ± 0.08 μg/μg DNA/96 h
1% Ultroser G, culture time 8-12 days, 10 μg/ml
  PGs released in the culture medium: 1.00 ± 0.12 μg/μg DNA/96 h
1% Ultroser G, culture time 8-12 days, 100 μg/ml
  PGs released in the culture medium: 1.32 ± 0.01 μg/μg DNA/96 h
1% Ultroser G, cumulative, 1 μg/ml
  Proteoglycans released during the 12 days of culture, Abs: 17.2 μg/μg DNA/12 days
1% Ultroser G, cumulative, 10 μg/ml
  Proteoglycans released during the 12 days of culture, Abs: 26.3 μg/μg DNA/12 days
1% Ultroser G, cumulative, 100 μg/ml
  Proteoglycans released during the 12 days of culture, Abs: 35.2 μg/μg DNA/12 days
Homo sapiens, Chondrocyte, 288 h, 1% Ultroser G, cumulative, 1 μg/ml, control = 100, read-out: Proteoglycans released during the 12 days of culture, %
  activity at 1 µg/mL: 98%
Homo sapiens, Chondrocyte, 288 h, 1% Ultroser G, cumulative, 10 μg/ml, control = 100, read-out: Proteoglycans released during the 12 days of culture, %
  activity at 10 µg/mL: 149%
Homo sapiens, Chondrocyte, 288 h, 1% Ultroser G, cumulative, 100 μg/ml, control = 100, read-out: Proteoglycans released during the 12 days of culture, %
  activity at 100 µg/mL: 200%
Homo sapiens, Chondrocyte, foetal calf serum, Table 14, 0-4 days, 10 μg/ml, control = 100%, read-out: PG in the culture medium, % of control
  activity at 10 µg/mL: 117%
Homo sapiens, Chondrocyte, foetal calf serum, Table 14, 0-4 days, 100 μg/ml, control = 100%, read-out: PG in the culture medium, % of control
  activity at 100 µg/mL: 184%
Homo sapiens, Chondrocyte, foetal calf serum, Table 14, 4-8 days, 10 μg/ml, control = 100%, read-out: PG in the culture medium, % of control
  activity at 10 µg/mL: 117%
Homo sapiens, Chondrocyte, foetal calf serum, Table 14, 4-8 days, 100 μg/ml, control = 100%, read-out: PG in the culture medium, % of control
  activity at 100 µg/mL: 136%
Homo sapiens, Chondrocyte, foetal calf serum, Table 15, 0-4 days, 10 μg/ml, control = 100%, read-out: PG in the culture medium, % of control
  activity at 10 µg/mL: 134%
Homo sapiens, Chondrocyte, foetal calf serum, Table 15, 0-4 days, 100 μg/ml, control = 100%, read-out: PG in the culture medium, % of control
  activity at 100 µg/mL: 149%
Homo sapiens, Chondrocyte, foetal calf serum, Table 15, 4-8 days, 10 μg/ml, control = 100%, read-out: PG in the culture medium, % of control
  activity at 10 µg/mL: 125%
Homo sapiens, Chondrocyte, foetal calf serum, Table 15, 4-8 days, 100 μg/ml, control = 100%, read-out: PG in the culture medium, % of control
  activity at 100 µg/mL: 137%
Homo sapiens, Chondrocyte, foetal calf serum, Table 16, 0-8 days, 10 μg/ml, control = 100%, read-out: PG in the clusters over 8 days, % of control
  activity at 10 µg/mL: 141%
Homo sapiens, Chondrocyte, foetal calf serum, Table 16, 0-8 days, 100 μg/ml, control = 100%, read-out: PG in the clusters over 8 days, % of control
  activity at 100 µg/mL: 146%
Homo sapiens, Chondrocyte, foetal calf serum, Table 17, 0-8 days, 10 μg/ml, control = 100%, read-out: PG in the clusters over 8 days, % of control
  activity at 10 µg/mL: 126%
Homo sapiens, Chondrocyte, foetal calf serum, Table 17, 0-8 days, 100 μg/ml, control = 100%, read-out: PG in the clusters over 8 days, % of control
  activity at 100 µg/mL: 144%
Foetal calf serum, 10 and 100 μg/ml
  PGs in the clusters, effect in words: significantly increased
Foetal calf serum, Table 14, 0-4 days, 10 μg/ml
  PG in the culture medium: 7.6 ± 0.41 μg/μg DNA - 96 H
Foetal calf serum, Table 14, 0-4 days, 100 μg/ml
  PG in the culture medium: 11.9 ± 2.09 μg/μg DNA - 96 H
Foetal calf serum, Table 14, 4-8 days, 10 μg/ml
  PG in the culture medium: 2.32 ± 0.21 μg/μg DNA - 96 H
Foetal calf serum, Table 14, 4-8 days, 100 μg/ml
  PG in the culture medium: 2.71 ± 0.24 μg/μg DNA - 96 H
Foetal calf serum, Table 15, 0-4 days, 10 μg/ml
  PG in the culture medium: 7.1 ± 0.36 μg/μg DNA - 96 H
Foetal calf serum, Table 15, 0-4 days, 100 μg/ml
  PG in the culture medium: 7.9 ± 0.30 μg/μg DNA - 96 H
Foetal calf serum, Table 15, 4-8 days, 10 μg/ml
  PG in the culture medium: 2.1 ± 1.16 μg/μg DNA - 96 H
Foetal calf serum, Table 15, 4-8 days, 100 μg/ml
  PG in the culture medium: 2.3 ± 0.13 μg/μg DNA - 96 H
Foetal calf serum, Table 16, 0-8 days, 10 μg/ml
  PG in the clusters over 8 days: 1108 ± 166 ng/μg DNA
Foetal calf serum, Table 16, 0-8 days, 100 μg/ml
  PG in the clusters over 8 days: 1142 ± 110 ng/μg DNA
Foetal calf serum, Table 17, 0-8 days, 10 μg/ml
  PG in the clusters over 8 days: 724.0 ± 72.45 ng/μg DNA
Foetal calf serum, Table 17, 0-8 days, 100 μg/ml
  PG in the clusters over 8 days: 832.0 ± 59.10 ng/μg DNA

— patent US5670538A, “Use of prodelphinidins for obtaining medicaments intended for the treatment of arthrosis” (Laboratoires Dolisos, priority 1992, dated 1997)
